Our source for the Ki values is ChEMBL document CHEMBL1129888, “Synthesis and evaluation of halogenated dibenzodiazepines as muscarinic receptor ligands” (Bioorg Med Chem Lett, 1997).

In general, Ki refers to the equilibrium dissociation constant of an inhibitor or competing ligand from its target. Low values mean higher affinity, high ones lower affinity.

One test has as its target T1, Muscarinic acetylcholine receptor M1 (Homo sapiens, UniProt P11229).
T1 sequence (P11229 whole entry): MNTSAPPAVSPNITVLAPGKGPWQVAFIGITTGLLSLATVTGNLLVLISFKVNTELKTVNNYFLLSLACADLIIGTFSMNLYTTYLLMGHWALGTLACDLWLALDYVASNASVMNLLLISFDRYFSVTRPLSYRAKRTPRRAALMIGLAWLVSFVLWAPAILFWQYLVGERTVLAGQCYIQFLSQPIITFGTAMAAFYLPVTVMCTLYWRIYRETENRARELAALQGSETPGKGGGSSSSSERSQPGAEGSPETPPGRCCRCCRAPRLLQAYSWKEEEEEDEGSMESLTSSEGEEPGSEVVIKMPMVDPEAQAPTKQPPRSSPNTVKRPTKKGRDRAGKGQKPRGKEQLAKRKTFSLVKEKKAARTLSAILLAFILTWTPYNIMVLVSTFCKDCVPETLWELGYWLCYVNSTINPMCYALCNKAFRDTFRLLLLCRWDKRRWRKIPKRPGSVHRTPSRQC
The test can be described thus: Tested in vitro for the binding affinity against muscarinic receptor subtype 1 (M1).
Compound `CCOC(=O)N(CC)CCCCC1CCN(CC(=O)N2c3ccccc3NC(=O)c3ccccc32)CC1` registered a Ki of 70 nM.
Same read-out and setting: for `CCN(CCCCC1CCN(CC(=O)N2c3ccccc3NC(=O)c3ccccc32)CC1)C(=O)c1cccc(I)c1` the value was 67.1 nM; for `CCN(CCCCC1CCN(CC(=O)N2c3ccccc3C(=O)N(C(=O)c3ccc(F)cc3)c3ccccc32)CC1)C(=O)c1ccc(F)cc1`, 129 nM; for `CCN(CCCCC1CCN(CC(=O)N2c3ccccc3NC(=O)c3ccccc32)CC1)C(=O)c1ccc(F)cc1`, 59.4 nM.
On the same count and under the same terms, for `CCNCCCCC1CCN(CC(=O)N2c3ccccc3NC(=O)c3ccccc32)CC1` the value was 6.98 nM.

The target of a further test is T2, Muscarinic acetylcholine receptor M2 (Homo sapiens, UniProt P08172).
T2 sequence (P08172 whole entry): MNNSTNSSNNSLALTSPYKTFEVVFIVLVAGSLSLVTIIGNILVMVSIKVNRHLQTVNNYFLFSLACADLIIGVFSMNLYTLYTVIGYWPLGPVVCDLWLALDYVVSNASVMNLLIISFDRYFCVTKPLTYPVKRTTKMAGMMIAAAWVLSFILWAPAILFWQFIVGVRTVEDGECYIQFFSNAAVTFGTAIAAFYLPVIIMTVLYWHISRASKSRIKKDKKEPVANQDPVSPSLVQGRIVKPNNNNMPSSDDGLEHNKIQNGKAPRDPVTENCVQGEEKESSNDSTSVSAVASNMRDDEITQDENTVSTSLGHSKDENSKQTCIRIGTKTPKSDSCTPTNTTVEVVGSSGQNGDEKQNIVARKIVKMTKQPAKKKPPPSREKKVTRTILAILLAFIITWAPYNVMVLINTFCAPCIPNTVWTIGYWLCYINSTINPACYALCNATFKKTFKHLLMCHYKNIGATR
The test can be described thus: Tested in vitro for the binding affinity against muscarinic receptor subtype 2 (M2).
In turn, `CCOC(=O)N(CC)CCCCC1CCN(CC(=O)N2c3ccccc3NC(=O)c3ccccc32)CC1` yielded a Ki of 37.1 nM.
Same read-out and setting: in the case of `CCN(CCCCC1CCN(CC(=O)N2c3ccccc3NC(=O)c3ccccc32)CC1)C(=O)c1cccc(I)c1` it was 111 nM.
Same read-out and setting: for `CCN(CCCCC1CCN(CC(=O)N2c3ccccc3C(=O)N(C(=O)c3ccc(F)cc3)c3ccccc32)CC1)C(=O)c1ccc(F)cc1` the value was 46.9 nM.
Still for that read-out and setting: in the case of `CCN(CCCCC1CCN(CC(=O)N2c3ccccc3NC(=O)c3ccccc32)CC1)C(=O)c1ccc(F)cc1` it was 32 nM; in that of `CCNCCCCC1CCN(CC(=O)N2c3ccccc3NC(=O)c3ccccc32)CC1`, 4.49 nM.

The target in a further test is Muscarinic acetylcholine receptor M3 (Homo sapiens, UniProt P20309). The test can be described thus: Tested in vitro for the binding affinity against muscarinic receptor subtype 3 (M3).
Chain of Muscarinic acetylcholine receptor M3 (P20309 whole entry): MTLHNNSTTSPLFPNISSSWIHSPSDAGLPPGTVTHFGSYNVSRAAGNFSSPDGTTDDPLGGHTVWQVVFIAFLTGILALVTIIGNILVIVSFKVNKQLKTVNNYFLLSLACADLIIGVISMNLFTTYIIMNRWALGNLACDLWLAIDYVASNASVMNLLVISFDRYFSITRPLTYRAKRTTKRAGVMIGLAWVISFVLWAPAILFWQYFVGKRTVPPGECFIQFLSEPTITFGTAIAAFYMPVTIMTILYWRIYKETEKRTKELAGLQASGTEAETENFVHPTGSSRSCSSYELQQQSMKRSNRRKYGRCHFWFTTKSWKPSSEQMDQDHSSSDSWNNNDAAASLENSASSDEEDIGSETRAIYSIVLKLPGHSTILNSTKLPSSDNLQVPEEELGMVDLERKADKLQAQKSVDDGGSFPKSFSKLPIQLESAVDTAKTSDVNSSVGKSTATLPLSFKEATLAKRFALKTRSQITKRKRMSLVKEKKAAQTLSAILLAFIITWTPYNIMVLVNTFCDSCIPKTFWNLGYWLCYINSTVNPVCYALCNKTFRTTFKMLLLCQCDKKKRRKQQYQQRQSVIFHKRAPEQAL
The compound `CCOC(=O)N(CC)CCCCC1CCN(CC(=O)N2c3ccccc3NC(=O)c3ccccc32)CC1` registered a Ki of 39.2 nM.
On the same count and under the same terms, for `CCN(CCCCC1CCN(CC(=O)N2c3ccccc3NC(=O)c3ccccc32)CC1)C(=O)c1cccc(I)c1` the value was 33.5 nM; for `CCN(CCCCC1CCN(CC(=O)N2c3ccccc3C(=O)N(C(=O)c3ccc(F)cc3)c3ccccc32)CC1)C(=O)c1ccc(F)cc1`, 79.1 nM.
Compound `CCN(CCCCC1CCN(CC(=O)N2c3ccccc3NC(=O)c3ccccc32)CC1)C(=O)c1ccc(F)cc1` yielded a Ki of 46.4 nM.
